Measurements from US20210393570A1, “THERAPEUTICAL COMPOSITIONS FOR USE IN THE TREATMENT OF NON-MALIGNANT CONDITIONS ASSOCIATED WITH PHOSPHATIDYLINOSITOL-3-KINASE ACTIVATION: OVERGROWTH SPECTRUM, CUTANEOUS CAPILLARY MALFORMATIONS AND SEBORRHEIC KERATOSES” (UNIVERSITÉ DE BOURGOGNE, priority 2017, published 2021).

What was measured:
[1] = tested on: patient A fibroblasts; test: Number of cells after 48 h treatment; assay type: cell-based, human; details: compared with PI3K or mTOR inhibitors, FIG. 3C
Procedure: (§1) FIG. 3 Cell viability measured by XTT labeling after 48 h of treatment by 10 μM LY294002 or by increasing doses of Triptolide (A), by 4 ng/ml Rapamycin (B) or increasing doses of Kribb11. For each experiment: control 1 (white bar), control 2 (hatched bar), patient B (grey bar), patient A (black bar). n=3. O.D.=optical density. (C) Number of cells after 48 h treatment for patient A. (D) Cell proliferation measured by incorporation of BrdU. O.D.=optical density. (E) Fibroblasts apoptosis of patients and healthy donors measured by a cell death detection ELISA kit, after 24 h treatment with 100 ng/ml rapamycin, 10 μM LY294002, 3 μM Kribb11 or 10 nM Triptolide. 1 μM of staurosporine was used as an inducer of apoptosis and as positive control of the experiment, n=3. O.D.=optical density. *p<0.05, **p<0.01, ***p<0.005.

[2] = tested on: fibroblasts from patients; test: Cell viability measured by XTT labeling; assay type: cell-based, human; details: 48 h treatment, increasing doses; compared with PI3K or mTOR inhibitors; FIG. 3A, 3B
Procedure: as §1

[3] = tested on: fibroblasts from patients; test: Cell proliferation measured by incorporation of BrdU; assay type: cell-based, human; details: FIG. 3D
Procedure: as §1

[4] = tested on: patient A fibroblasts; test: Quantitative PCR of 74 genes known to be regulated by HSF1; assay type: cell-based, human; details: two independent experiments, FIG. 2D
From the text: (D) Quantitative PCR analysis of the expression of 74 genes belonging to a cancer-related gene signature in patient A fibroblasts after treatment with LY294002. A code with different patterns is used to illustrate the intensity of the increase (gradient of grey) or decrease (shading pattern) of gene expression compared to untreated cells;
The Inventors have further investigated whether the PI3K/AKT/mTOR pathway is directly responsible for the activation of HSF1 in the fibroblasts of patients. The induction of PI3K/AKT activating pathway by adding insulin to normal fibroblasts is well known. […] To test this hypothesis, the expression of 74 known genes to be regulated by HSF1 have been determined after treatment with the PI3K inhibitor (FIG. 2D). In two independent experiments, the expression of 47 genes is inhibited while the expression of 11 genes is increased. The results are variable for 12 other genes (increase and decrease). […] Thus, a large part of a HSF1-dependent gene signature can be inhibited by the blocking of PI3K and thus confirms the link between these two pathways in the syndrome of segmental hypertrophy PIK3CA dependent.

[5] = tested on: fibroblasts of patients and healthy donors; test: Fibroblast apoptosis measured by cell death detection ELISA kit; assay type: cell-based; details: 24 h treatment; 3 μM Kribb11 or 10 nM Triptolide; FIG. 3E
Procedure: as §1

[6] = tested on: AKT; test: Immunoblotting of AKT phosphorylation in fibroblasts; assay type: cell-based, human; details: treatment with insulin; FIG. 2A
[7] = tested on: HSF1; test: Immunoblotting of HSF1 phosphorylation in fibroblasts; assay type: cell-based, human; details: insulin added to normal fibroblasts; FIG. 2A

**Q.** `CNc1ccc([N+](=O)[O-])c(Nc2ccc3[nH]ncc3c2)n1` [Kribb11] was tested. Which “number of total cells” value [1] did it give?
**A.** Its value is “reduction”.

**Q.** What about the “cell growth (cell viability, XTT)” value [2] of the same compound?
**A.** The value was “reduction in cell growth”.

**Q.** And the “increase in the % of cells entering the S phase” value [3]?
**A.** The value was “completely blocked”.

**Q.** What does the source list for `O=c1cc(N2CCOCC2)oc2c(-c3ccccc3)cccc12` [LY294002]?
**A.** number of HSF1-regulated genes whose expression is increased [4]: 11 genes; number of HSF1-regulated genes whose expression is inhibited [4]: 47 genes; number of HSF1-regulated genes with variable results (increase and decrease) [4]: 12 genes

**Q.** For `CC(C)[C@]12O[C@H]1[C@@H]1O[C@]13[C@]1(O[C@H]1C[C@H]1C4=C(CC[C@@]13C)C(=O)OC4)[C@@H]2O` [Triptolide], which “number of total cells” value [1] is on record?
**A.** Its value is “reduction”.

**Q.** What about the “cell growth (cell viability, XTT)” value [2] of the same compound?
**A.** The value was “reduction in cell growth”.

**Q.** What about the “cell mortality (apoptosis)” value [5] of the same compound?
**A.** Its value is “not associated with an increase in cell mortality”.

**Q.** Which results are given for insulin?
**A.** phosphorylation of AKT [6]: induces the phosphorylation of AKT; phosphorylation of HSF1 [7]: induction of the phosphorylation of HSF1
